Earlier results in patent US20070191377A1, “Methods for treating blood disorders with nitric oxide donor compounds” (NitroMed, Inc., priority 2004, published 2007).

Q: Which “solubility in organic solvents” value (organic solvents such as ethanol, ether and chloroform) does the source give for `O=[N+]([O-])O[C@H]1CO[C@H]2[C@@H]1OC[C@H]2O[N+](=O)[O-]` [isosorbide dinitrate, 1,4,3,6-dianhydro-D-glucitol-2,5-dinitrate] here?
A: The value was “freely soluble”.

Q: And the solubility in water (water)?
A: Its solubility in water is “sparingly soluble”.
